Where two headings read alike, the source gives them in different places.
Assays:
Type in all cases: cell-based
[1] = test system: mantle cell lymphoma cell (Mino or JeKo-1); test: Antiproliferative effect, MTS cell viability assay
Experimental: Antiproliferative effect of the exemplary compounds was assessed in B-cell malignancy models.
To assess the effect of the exemplary compounds on cell viability in B-cell malignancy models by degradation of CDK4/6 proteins, Mino cells were treated with varying concentrations of exemplary compounds (0, 0.0001, 0.001, 0.01, 0.1, 1 μM) or positive control (palbociclib and abemaciclib). Under these conditions, cell viability was determined by an MTS assay. Cytotoxicity was assayed by the determination of reduced tetrazolium (formazan) created by metabolically active cells as detected at 490 nanometers (nm) absorbance using a microplate reader (BMG Labtech, Cary, NC, USA).
The exemplary compounds attenuated the viability of Mino cells in a concentration-dependent manner at 72 h post treatment. Results are shown in Table 1 and FIGS. 2-15 for each exemplary compound.

CDK6 = target: T1, CDK6 (Homo sapiens, UniProt Q00534); test: CDK6 degradation (DC50, Dmax)
T1 construct: endogenous in cells

CDK4 = target: T2, CDK4 (Homo sapiens, UniProt P11802); test: CDK4 degradation (DC50, Dmax)
T2 construct: endogenous in cells

[2] = 72 h, mantle cell lymphoma cell (Mino or JeKo-1), MTS assay, read-out: IC50 (anti-proliferation)

T2 sequence (P11802 whole entry): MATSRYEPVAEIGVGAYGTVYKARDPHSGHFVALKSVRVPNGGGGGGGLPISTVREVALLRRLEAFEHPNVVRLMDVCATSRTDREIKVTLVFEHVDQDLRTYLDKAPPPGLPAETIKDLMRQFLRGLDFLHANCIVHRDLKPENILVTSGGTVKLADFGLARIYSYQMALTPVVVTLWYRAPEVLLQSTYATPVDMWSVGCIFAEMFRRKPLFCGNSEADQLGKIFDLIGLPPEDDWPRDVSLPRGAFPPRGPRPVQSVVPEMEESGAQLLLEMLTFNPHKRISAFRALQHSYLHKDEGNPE
T1 sequence (Q00534 whole entry): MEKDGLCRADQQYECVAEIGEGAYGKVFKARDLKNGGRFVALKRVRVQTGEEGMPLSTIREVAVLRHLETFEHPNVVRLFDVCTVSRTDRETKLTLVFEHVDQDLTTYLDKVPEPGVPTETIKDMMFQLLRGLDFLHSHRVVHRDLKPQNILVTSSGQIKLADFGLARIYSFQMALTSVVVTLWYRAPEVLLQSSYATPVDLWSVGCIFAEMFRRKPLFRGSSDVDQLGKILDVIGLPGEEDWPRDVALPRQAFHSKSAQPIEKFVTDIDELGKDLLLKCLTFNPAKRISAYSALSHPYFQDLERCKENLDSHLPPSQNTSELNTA

SMILES	IC50 ([1]; mantle cell lymphoma cell (Mino or JeKo-1); MTS assay, 72 h; read-out: IC50 (anti-proliferation)) [nM]	DC50 (CDK6) [nM]	Dmax (CDK6) [%]	DC50 (CDK4) [nM]	Dmax (CDK4) [%]	IC50 [1, 2] [nM]
CC(=O)c1c(C)c2cnc(Nc3ccc(N4CCN(C(=O)N5CCN(c6ccc7c(c6)C(=O)N(C6CCC(=O)NC6=O)C7=O)CC5)CC4)cn3)nc2n(C2CCCC2)c1=O (stereo not drawn) [Compound 1, 5-(4-(4-(6-((6-acetyl-8-cyclopentyl-5-methyl-7-oxo-7,8-dihydropyrido[2,3-d]pyrimidin-2-yl)amino)pyridin-3-yl)piperazine-1-carbonyl)piperazin-1-yl)-2-(2,6-dioxopiperidin-3-yl) isoindoline-1,3-dione]	< 50	< 50	> 60	50 to 200	> 60	
CC(=O)c1c(C)c2cnc(Nc3ccc(N4CCN(C(=O)N5CCN(c6ccc7c(c6)CN(C6CCC(=O)NC6=O)C7=O)CC5)CC4)cn3)nc2n(C2CCCC2)c1=O (stereo not drawn) [Compound 2, 3-(5-(4-(4-(6-((6-acetyl-8-cyclopentyl-5-methyl-7-oxo-7,8-dihydropyrido[2,3-d]pyrimidin-2-yl)amino)pyridin-3-yl)piperazine-1-carbonyl)piperazin-1-yl)-1-oxoisoindolin-2-yl)piperidine-2,6-dione]		> 200	> 60	> 200	> 60	50 to 200
CC(=O)c1c(C)c2cnc(Nc3ccc(N4CCN(C(=O)N5CCC(N6CCN(c7ccc8c(c7)C(=O)N(C7CCC(=O)NC7=O)C8=O)CC6)CC5)CC4)cn3)nc2n(C2CCCC2)c1=O (stereo not drawn) [Compound 3, 5-(4-(1-(4-(6-((6-acetyl-8-cyclopentyl-5-methyl-7-oxo-7,8-dihydropyrido[2,3-d]pyrimidin-2-yl)amino)pyridin-3-yl)piperazine-1-carbonyl)piperidin-4-yl)piperazin-1-yl)-2-(2,6-dioxopiperidin-3-yl)isoindoline-1,3-dione]		> 200	> 50	> 200	> 50	50 to 200
CC(=O)c1c(C)c2cnc(Nc3ccc(N4CCN(C(=O)N5CCC(N6CCN(c7ccc8c(c7)CN(C7CCC(=O)NC7=O)C8=O)CC6)CC5)CC4)cn3)nc2n(C2CCCC2)c1=O (stereo not drawn) [Compound 4, 3-(5-(4-(1-(4-(6-((6-acetyl-8-cyclopentyl-5-methyl-7-oxo-7,8-dihydropyrido[2,3-d]pyrimidin-2-yl)amino)pyridin-3-yl)piperazine-1-carbonyl)piperidin-4-yl)piperazin-1-yl)-1-oxoisoindolin-2-yl)piperidine-2,6-dione]		> 200	> 50	> 200	> 50	50 to 200
CC(=O)c1c(C)c2cnc(Nc3ccc(N4CCN(C(=O)N5CCN(C6CCN(c7ccc8c(c7)C(=O)N(C7CCC(=O)NC7=O)C8=O)CC6)CC5)CC4)cn3)nc2n(C2CCCC2)c1=O (stereo not drawn) [Compound 5, 5-(4-(4-(4-(6-((6-acetyl-8-cyclopentyl-5-methyl-7-oxo-7,8-dihydropyrido[2,3-d]pyrimidin-2-yl)amino)pyridin-3-yl)piperazine-1-carbonyl)piperazin-1-yl)piperidin-1-yl)-2-(2,6-dioxopiperidin-3-yl)isoindoline-1,3-dione]		> 200	> 60	> 200	> 60	50 to 200
CC(=O)c1c(C)c2cnc(Nc3ccc(N4CCN(C(=O)N5CCN(C6CCN(c7ccc8c(c7)CN(C7CCC(=O)NC7=O)C8=O)CC6)CC5)CC4)cn3)nc2n(C2CCCC2)c1=O (stereo not drawn) [Compound 6, 3-(5-(4-(4-(4-(6-((6-acetyl-8-cyclopentyl-5-methyl-7-oxo-7,8-dihydropyrido[2,3-d]pyrimidin-2-yl)amino)pyridin-3-yl)piperazine-1-carbonyl)piperazin-1-yl)piperidin-1-yl)-1-oxoisoindolin-2-yl)piperidine-2,6-dione]		> 200	> 50	> 200	> 50	> 200
CC(=O)c1c(C)c2cnc(Nc3ccc(N4CCN(C(=O)N5CCC(N6CCC(c7ccc8c(c7)C(=O)N(C7CCC(=O)NC7=O)C8=O)CC6)CC5)CC4)cn3)nc2n(C2CCCC2)c1=O (stereo not drawn) [Compound 7, 5-(1′-(4-(6-((6-acetyl-8-cyclopentyl-5-methyl-7-oxo-7,8-dihydropyrido[2,3-d]pyrimidin-2-yl)amino)pyridin-3-yl)piperazine-1-carbonyl)-[1,4′-bipiperidin]-4-yl)-2-(2,6-dioxopiperidin-3-yl)isoindoline-1,3-dione]		50 to 200	> 60	50 to 200	> 60	50 to 200
CC(=O)c1c(C)c2cnc(Nc3ccc(N4CCN(C(=O)N5CCC(N6CCC(c7ccc8c(c7)CN(C7CCC(=O)NC7=O)C8=O)CC6)CC5)CC4)cn3)nc2n(C2CCCC2)c1=O (stereo not drawn) [Compound 8, 3-(5-(1′-(4-(6-((6-acetyl-8-cyclopentyl-5-methyl-7-oxo-7,8-dihydropyrido[2,3-d]pyrimidin-2-yl)amino)pyridin-3-yl)piperazine-1-carbonyl)-[1,4′-bipiperidin]-4-yl)-1-oxoisoindolin-2-yl)piperidine-2,6-dione]		> 200	> 50	> 200	> 60	> 200
CC(=O)c1c(C)c2cnc(Nc3ccc(N4CCN(C(=O)N5CCC(C6CCN(c7ccc8c(c7)C(=O)N(C7CCC(=O)NC7=O)C8=O)CC6)CC5)CC4)cn3)nc2n(C2CCCC2)c1=O (stereo not drawn) [Compound 9, 5-(1′-(4-(6-((6-acetyl-8-cyclopentyl-5-methyl-7-oxo-7,8-dihydropyrido[2,3-d]pyrimidin-2-yl)amino)pyridin-3-yl)piperazine-1-carbonyl)-[4,4′-bipiperidin]-1-yl)-2-(2,6-dioxopiperidin-3-yl)isoindoline-1,3-dione]		> 200	> 50	> 200	> 50	> 200
CC(=O)c1c(C)c2cnc(Nc3ccc(N4CCN(C(=O)N5CCC(C6CCN(c7ccc8c(c7)CN(C7CCC(=O)NC7=O)C8=O)CC6)CC5)CC4)cn3)nc2n(C2CCCC2)c1=O (stereo not drawn) [Compound 10, 3-(5-(1′-(4-(6-((6-acetyl-8-cyclopentyl-5-methyl-7-oxo-7,8-dihydropyrido[2,3-d]pyrimidin-2-yl)amino)pyridin-3-yl)piperazine-1-carbonyl)-[4,4′-bipiperidin]-1-yl)-1-oxoisoindolin-2-yl)piperidine-2,6-dione]		> 200	> 50	> 200	> 50	> 200
CC(=O)c1c(C)c2cnc(Nc3ccc(N4CCN(C(=O)N5CCC(CN6CCN(c7ccc8c(c7)C(=O)N(C7CCC(=O)NC7=O)C8=O)CC6)CC5)CC4)cn3)nc2n(C2CCCC2)c1=O (stereo not drawn) [Compound 11]		50 to 200	> 60	50 to 200	> 60	50 to 200
CC(=O)c1c(C)c2cnc(Nc3ccc(N4CCN(C(=O)N5CCC(CN6CCN(c7ccc8c(c7)CN(C7CCC(=O)NC7=O)C8=O)CC6)CC5)CC4)cn3)nc2n(C2CCCC2)c1=O (stereo not drawn) [Compound 12, 3-(5-(4-((1-(4-(6-((6-acetyl-8-cyclopentyl-5-methyl-7-oxo-7,8-dihydropyrido[2,3-d]pyrimidin-2-yl)amino)pyridin-3-yl)piperazine-1-carbonyl)piperidin-4-yl)methyl)piperazin-1-yl)-1-oxoisoindolin-2-yl)piperidine-2,6-dione]		> 200	> 60	> 200	> 60	50 to 200
CC(=O)c1c(C)c2cnc(Nc3ccc(N4CCN(C(=O)N5CCC(CC6CCN(c7ccc8c(c7)C(=O)N(C7CCC(=O)NC7=O)C8=O)CC6)CC5)CC4)cn3)nc2n(C2CCCC2)c1=O (stereo not drawn) [Compound 13, 5-(4-((1-(4-(6-((6-acetyl-8-cyclopentyl-5-methyl-7-oxo-7,8-dihydropyrido[2,3-d]pyrimidin-2-yl)amino)pyridin-3-yl)piperazine-1-carbonyl)piperidin-4-yl)methyl)piperidin-1-yl)-2-(2,6-dioxopiperidin-3-yl)isoindoline-1,3-dione]		50 to 200	> 60	50 to 200	> 60	50 to 200
CC(=O)c1c(C)c2cnc(Nc3ccc(N4CCN(C(=O)N5CCC(CC6CCN(c7ccc8c(c7)CN(C7CCC(=O)NC7=O)C8=O)CC6)CC5)CC4)cn3)nc2n(C2CCCC2)c1=O (stereo not drawn) [Compound 14, 3-(5-(4-((1-(4-(6-((6-acetyl-8-cyclopentyl-5-methyl-7-oxo-7,8-dihydropyrido[2,3-d]pyrimidin-2-yl)amino)pyridin-3-yl)piperazine-1-carbonyl)piperidin-4-yl)methyl)piperidin-1-yl)-1-oxoisoindolin-2-yl)piperidine-2,6-dione]		> 200	> 60	> 200	> 50	50 to 200
CC(=O)c1c(C)c2cnc(Nc3ccc(N4CCN(C(=O)N5CCN(CC6CCN(c7ccc8c(c7)C(=O)N(C7CCC(=O)NC7=O)C8=O)CC6)CC5)CC4)cn3)nc2n(C2CCCC2)c1=O (stereo not drawn) [Compound 15, 5-(4-((4-(4-(6-((6-acetyl-8-cyclopentyl-5-methyl-7-oxo-7,8-dihydropyrido[2,3-d]pyrimidin-2-yl)amino)pyridin-3-yl)piperazine-1-carbonyl)piperazin-1-yl)methyl)piperidin-1-yl)-2-(2,6-dioxopiperidin-3-yl) isoindoline-1,3-dione]		> 200	> 50	> 200	> 50	> 200
